Experimental data reported in US20250082764A1, “DRUG FOR TREATING TRIPLE NEGATIVE BREAST CANCER” (HINOVA PHARMACEUTICALS INC., priority 2022, published 2025).
One block for each compound: values may come before it.

Experiments:
Format in all cases: cell-based
MDA-MB-453 cells [1] = assay: Inhibition of proliferation of MDA-MB-453 cells by single agents (CCK-8 or CTG); details: co-incubation for 7-10 days; for inhibitory effect on the proliferation of MDA-MB-453 cells (in words): single agent
Procedure: Triple negative breast cancer MDA-MB-453 cells in logarithmic growth stage were inoculated into a 96-well plate at a concentration of 4×10^3 cells/well, and then incubated in an incubator at 37° C., 5% CO2, and saturated humidity for 24 h or 48 h. To the negative control well, was added RPMI 1640 cell medium containing 10% fetal bovine serum in the same volume as the drug. After cultured for 24 h or 48 h, to the 96-well plate, were added AR PROTACs compounds 162, 177, 230, 259, 279, 281, 282, 325, 357, 400, ARV-110, ARV-766 and AR inhibitor HC-1119, respectively. The concentrations of compounds 177, 230, 259, 279, 281, 282, 325, 357, 400, ARV-110, and ARV-766 are 0 μM, 0.002 μM, 0.005 μM, 0.014 μM, 0.041 μM, 0.123 μM, 0.370 μM, 1.111μM, 3.333 μM or 10 μM; while the concentrations of HC-1119 are 0 μM, 1.23 μM, 3.70 μM, 11.11 μM, 33.33 μM or 100 μM.
(§1) After addition of the drugs and co-incubation for 7-10 days, 10 μL of CCK-8 was added to each well, and then the plate was further cultured for 2 h. The absorbance value (OD) of each well was measured using a microplate reader at a wavelength of 450 nm. The survival rate was calculated using Prism software, the relative survival rate=(OD value of drug well/OD value of control well)×100%. Alternatively, 100 μL of medium was removed from each well, and then 50 μL of CTG was added. The plate was shaken in the dark for 2 min, allowed to stand for 10 min, and then measured using a microplate reader in Luminescence mode. Prism software was used to calculate the survival rate, the relative survival rate=(the RLU value of drug well/the RLU value of control well)×100%.

MDA-MB-453 cells [2] = assay: Proliferation of MDA-MB-453 cells, AR PROTAC in combination with PI3K inhibitor Duvelisib (Combination Index); details: molar ratio of compound to Duvelisib 1:30-1:1.111; 7-10 days; synergistic when CI<1
Procedure: (§2) Triple negative breast cancer MDA-MB-453 cells in logarithmic growth stage were inoculated into a 96-well plate at a concentration of 4×10^3 cells/well, and then incubated in an incubator at 37° C., 5% CO2, and saturated humidity for 24 h. To the negative control wells, were added RPMI 1640 cell culture medium containing 10% fetal bovine serum in the same volume as the drug. After cultured for 24 h, to the 96-well plate, were sequentially added AR PROTACs compounds 279, 281, 282, ARV-110 and PI3K inhibitor Duvelisib, respectively.
as §1, with “adding” for “addition of”, “co-incubating” for “co-incubation”

MDA-MB-453 cells [3] = assay: Proliferation of MDA-MB-453 cells, AR PROTAC in combination with PI3K inhibitor Alpelisib (Combination Index); details: molar ratio of compound to Alpelisib 1:27-9:1; 7 days; synergistic when CI<1
Procedure: as §2, with “ARV-110, ARV-766” for “ARV-110”, “Alpelisib,” for “Duvelisib,”
as §1, with “7” for “7-10”

MDA-MB-453 cells [4] = assay: Proliferation of MDA-MB-453 cells, AR PROTAC in combination with chemotherapeutic drug Paclitaxel (Combination Index); details: molar ratio of compound to Paclitaxel 20:1-5000:1; 7 days; synergistic when CI<1
Procedure: as §2, with “chemotherapeutic drug Paclitaxel,” for “PI3K inhibitor Duvelisib,”
as §1, with “adding” for “addition of”, “co-incubating” for “co-incubation”, “7” for “7-10”

MDA-MB-453 cells [5] = assay: Proliferation of MDA-MB-453 cells, AR PROTAC in combination with PI3K inhibitor Idelalisib (Combination Index); details: molar ratio of compound to Idelalisib 1:270-1:3.333; 7-10 days; synergistic when CI<1
Procedure: as §2, with “ARV-110, ARV-766” for “ARV-110”, “Idelalisib,” for “Duvelisib,”
as §1, with “adding” for “addition of”, “co-incubating” for “co-incubation”

Compound: [2H]C([2H])([2H])NC(=O)c1ccc(N2C(=S)N(c3ccc(C#N)c(C(F)(F)F)c3)C(=O)C2(C)C)cc1F [HC-1119, reference compound]
inhibitory effect on the proliferation of MDA-MB-453 cells (in words) (MDA-MB-453 cells [1]): weak inhibitory effect

Compound: N#Cc1ccc(O[C@H]2CC[C@H](NC(=O)c3ccc(N4CC5(CCN(CC6CCN(c7ccc8c(c7)C(=O)N(C7CCC(=O)NC7=O)C8=O)CC6)CC5)C4)nn3)CC2)cc1Cl (stereo partly shown) [Compound 282]
effect of drug combination with Duvelisib on inhibiting the proliferation of MDA-MB-453 cells (MDA-MB-453 cells [2]): synergistic effect | effect of drug combination with Alpelisib on inhibiting the proliferation of MDA-MB-453 cells (MDA-MB-453 cells [3]): synergistic effect | effect of drug combination with Paclitaxel on inhibiting the proliferation of MDA-MB-453 cells (MDA-MB-453 cells [4]): synergistic effect | inhibitory effect on the proliferation of MDA-MB-453 cells (in words) (MDA-MB-453 cells [1]): inhibit the proliferation of MDA-MB-453 cells to varying degrees | effect of drug combination with Idelalisib on inhibiting the proliferation of MDA-MB-453 cells (MDA-MB-453 cells [5]): synergistic effect

Compound: N#Cc1ccc(O[C@H]2CC[C@H](NC(=O)c3cnc(N4CCC(CN5CCC6(CC5)CN(c5ccc7c(c5)C(=O)N(C5CCC(=O)NC5=O)C7=O)C6)CC4)nn3)CC2)cc1Cl (stereo partly shown) [Compound 279]
effect of drug combination with Duvelisib on inhibiting the proliferation of MDA-MB-453 cells (MDA-MB-453 cells [2]): synergistic effect | effect of drug combination with Alpelisib on inhibiting the proliferation of MDA-MB-453 cells (MDA-MB-453 cells [3]): synergistic effect | effect of drug combination with Paclitaxel on inhibiting the proliferation of MDA-MB-453 cells (MDA-MB-453 cells [4]): synergistic effect | inhibitory effect on the proliferation of MDA-MB-453 cells (in words) (MDA-MB-453 cells [1]): inhibit the proliferation of MDA-MB-453 cells to varying degrees | effect of drug combination with Idelalisib on inhibiting the proliferation of MDA-MB-453 cells (MDA-MB-453 cells [5]): synergistic effect

IC50 (MDA-MB-453 cells [1]; Homo sapiens, MDA-MB-453, CCK-8 or CTG readout, read-out: IC50 values against MDA-MB-453 cells): ≤ 2000 nM
Compound: CC1(C)[C@H](Oc2ccc(C#N)c(Cl)c2)C(C)(C)[C@H]1N1Cc2nc(C#C[C@H]3C[C@H](N4CCN(c5cc6c(cc5F)C(=O)N(C5CCC(=O)NC5=O)C6=O)CC4)C3)ccc2C1=O (stereo partly shown) [Compound 357]
inhibitory effect on the proliferation of MDA-MB-453 cells (in words) (MDA-MB-453 cells [1]): inhibit the proliferation of MDA-MB-453 cells to varying degrees

Compound: N#Cc1ccc(O[C@H]2CC[C@H](NC(=O)c3ccc(N4CCC(CN5CCC6(CC5)CN(c5ccc7c(c5)C(=O)N(C5CCC(=O)NC5=O)C7=O)C6)CC4)nn3)CC2)cc1Cl (stereo partly shown) [Compound 230]
inhibitory effect on the proliferation of MDA-MB-453 cells (in words) (MDA-MB-453 cells [1]): inhibit the proliferation of MDA-MB-453 cells to varying degrees

Compound: CC1(C)[C@H](Oc2ccc(C#N)c(Cl)c2)C(C)(C)[C@H]1N1Cc2nc(C#C[C@H]3CC[C@H](N4CCN(c5ccc6c(c5)C(=O)N(C5CCC(=O)NC5=O)C6=O)CC4)CC3)ccc2C1=O (stereo partly shown) [Compound 325]
inhibitory effect on the proliferation of MDA-MB-453 cells (in words) (MDA-MB-453 cells [1]): inhibit the proliferation of MDA-MB-453 cells to varying degrees

Compound: N#Cc1ccc(O[C@H]2CC[C@H](NC(=O)c3ccc(N4CCC(N5CCC6(CC5)CN(c5ccc7c(c5)C(=O)N(C5CCC(=O)NC5=O)C7=O)C6)CC4)nn3)CC2)cc1Cl (stereo partly shown) [Compound 281]
effect of drug combination with Duvelisib on inhibiting the proliferation of MDA-MB-453 cells (MDA-MB-453 cells [2]): synergistic effect | effect of drug combination with Alpelisib on inhibiting the proliferation of MDA-MB-453 cells (MDA-MB-453 cells [3]): synergistic effect | effect of drug combination with Paclitaxel on inhibiting the proliferation of MDA-MB-453 cells (MDA-MB-453 cells [4]): synergistic effect | inhibitory effect on the proliferation of MDA-MB-453 cells (in words) (MDA-MB-453 cells [1]): inhibit the proliferation of MDA-MB-453 cells to varying degrees | effect of drug combination with Idelalisib on inhibiting the proliferation of MDA-MB-453 cells (MDA-MB-453 cells [5]): synergistic effect

Compound: N#Cc1ccc(O[C@H]2CC[C@H](NC(=O)c3ccc(N4CCC(CN5CCN(c6cc7c(cc6F)C(=O)N(C6CCC(=O)NC6=O)C7=O)CC5)CC4)nn3)CC2)cc1Cl (stereo partly shown) [ARV-110, reference compound]
effect of drug combination with Duvelisib on inhibiting the proliferation of MDA-MB-453 cells (MDA-MB-453 cells [2]): synergistic effect | effect of drug combination with Alpelisib on inhibiting the proliferation of MDA-MB-453 cells (MDA-MB-453 cells [3]): synergistic effect | effect of drug combination with Paclitaxel on inhibiting the proliferation of MDA-MB-453 cells (MDA-MB-453 cells [4]): synergistic effect | inhibitory effect on the proliferation of MDA-MB-453 cells (in words) (MDA-MB-453 cells [1]): inhibit the proliferation of MDA-MB-453 cells to varying degrees | effect of drug combination with Idelalisib on inhibiting the proliferation of MDA-MB-453 cells (MDA-MB-453 cells [5]): synergistic effect

Compound: COc1cc(O[C@H]2C(C)(C)[C@H](N3Cc4nc(C#C[C@H]5CC[C@H](N6CCN(c7ccc8c(c7)C(=O)N(C7CCC(=O)NC7=O)C8=O)CC6)CC5)ccc4C3=O)C2(C)C)ccc1C#N (stereo partly shown) [Compound 400]
inhibitory effect on the proliferation of MDA-MB-453 cells (in words) (MDA-MB-453 cells [1]): inhibit the proliferation of MDA-MB-453 cells to varying degrees

Compound: N#Cc1ccc(O[C@H]2CC[C@H](NC(=O)c3cnc(N4C[C@@H]5[C@@H](CN6CCN(c7ccc8c(c7)C(=O)N(C7CCC(=O)NC7=O)C8=O)CC6)[C@@H]5C4)cn3)CC2)cc1Cl (stereo partly shown) [Compound 177]
inhibitory effect on the proliferation of MDA-MB-453 cells (in words) (MDA-MB-453 cells [1]): inhibit the proliferation of MDA-MB-453 cells to varying degrees

Compound: COc1cc(O[C@H]2C(C)(C)[C@H](NC(=O)c3ccc(N4CCC(CN5CCN(c6ccc(C(=O)N[C@H]7CCC(=O)NC7=O)c(F)c6)CC5)CC4)cc3)C2(C)C)ccc1C#N [ARV-766, reference compound]
effect of drug combination with Alpelisib on inhibiting the proliferation of MDA-MB-453 cells (MDA-MB-453 cells [3]): synergistic effect | inhibitory effect on the proliferation of MDA-MB-453 cells (in words) (MDA-MB-453 cells [1]): inhibit the proliferation of MDA-MB-453 cells to varying degrees | effect of drug combination with Idelalisib on inhibiting the proliferation of MDA-MB-453 cells (MDA-MB-453 cells [5]): synergistic effect

Compound: N#Cc1ccc(O[C@H]2CC[C@H](NC(=O)c3ccc(N4CC5CN(CC6CCN(c7cc8c(cc7F)C(=O)N(C7CCC(=O)NC7=O)C8=O)CC6)CC5C4)nn3)CC2)cc1Cl (stereo partly shown) [Compound 259]
inhibitory effect on the proliferation of MDA-MB-453 cells (in words) (MDA-MB-453 cells [1]): inhibit the proliferation of MDA-MB-453 cells to varying degrees
